Test results reported in patent US12552804B2, “Tricyclic heterocycles as FGFR inhibitors” (Incyte Corporation, priority 2019, dated 2026).

Target: wild-type un-phosphorylated FGFR3 protein (Homo sapiens, UniProt P22607)
Assay: FGFR Enzymatic Assay (FRET detection of peptide phosphorylation)
Type: biochemical
Conditions: pre-incubated for 4 hours, read-out: FGFR3_Ki
Procedure: The inhibitor potency of the exemplified compounds was determined in an enzyme discontinuous assay that measures peptide phosphorylation using FRET measurements to detect product formation. Inhibitors were serially diluted in DMSO and a volume of 0.2 μL was transferred to the wells of a 384-well plate. A 5 μL/well volume of enzyme isoforms of FGFR (−1, −2, −3 wild-type and mutant isoforms, −4) including phosphorylated and un-phosphorylated proteins diluted in assay buffer (50 mM HEPES, 10 mM MgCl2, 1 mM EGTA, 0.01% Tween-20, 5 mM DTT, pH 7.5) was added to the plate and pre-incubated with inhibitor for 5 to 15 minutes at ambient temperature. Appropriate controls (enzyme blank and enzyme with no inhibitor) were included on the plate. […] The ATP Km values were pre-determined in a separate series of experiments. The reaction plate was incubated at 25° C. for 1 hr and the reactions were ended with the addition of 5 μL/well of quench solution (50 mM Tris, 150 mM NaCl, 0.5 mg/mL BSA, pH 7.8; 45 mM EDTA, 600 nM staurosporin, with Perkin Elmer Lance Reagents at 3.75 nM Eu-antibody PY20 and 180 nM APC-Streptavidin). The plate was allowed to equilibrate for ˜10 minutes at ambient temperature before scanning on a PheraStar plate reader (BMG Labtech) instrument.
Either GraphPad prism or XLfit was used to analyze the data. The IC50 values were derived by fitting the data to a four parameter logistic equation producing a sigmoidal dose-response curve with a variable Hill coefficient. Prism equation: Y=Bottom+(Top−Bottom)/(1+10^((LogIC50−X)*Hill slope)); XLfit equation: Y=(A+((B−A)/(1+((X/C)^D)))) where X is the logarithm of inhibitor concentration and Y is the response.
The data in Table 1 was measured in wild-type un-phosphorylated FGFR3 protein.

wild-type un-phosphorylated FGFR3 protein, sequence (P22607 23-806): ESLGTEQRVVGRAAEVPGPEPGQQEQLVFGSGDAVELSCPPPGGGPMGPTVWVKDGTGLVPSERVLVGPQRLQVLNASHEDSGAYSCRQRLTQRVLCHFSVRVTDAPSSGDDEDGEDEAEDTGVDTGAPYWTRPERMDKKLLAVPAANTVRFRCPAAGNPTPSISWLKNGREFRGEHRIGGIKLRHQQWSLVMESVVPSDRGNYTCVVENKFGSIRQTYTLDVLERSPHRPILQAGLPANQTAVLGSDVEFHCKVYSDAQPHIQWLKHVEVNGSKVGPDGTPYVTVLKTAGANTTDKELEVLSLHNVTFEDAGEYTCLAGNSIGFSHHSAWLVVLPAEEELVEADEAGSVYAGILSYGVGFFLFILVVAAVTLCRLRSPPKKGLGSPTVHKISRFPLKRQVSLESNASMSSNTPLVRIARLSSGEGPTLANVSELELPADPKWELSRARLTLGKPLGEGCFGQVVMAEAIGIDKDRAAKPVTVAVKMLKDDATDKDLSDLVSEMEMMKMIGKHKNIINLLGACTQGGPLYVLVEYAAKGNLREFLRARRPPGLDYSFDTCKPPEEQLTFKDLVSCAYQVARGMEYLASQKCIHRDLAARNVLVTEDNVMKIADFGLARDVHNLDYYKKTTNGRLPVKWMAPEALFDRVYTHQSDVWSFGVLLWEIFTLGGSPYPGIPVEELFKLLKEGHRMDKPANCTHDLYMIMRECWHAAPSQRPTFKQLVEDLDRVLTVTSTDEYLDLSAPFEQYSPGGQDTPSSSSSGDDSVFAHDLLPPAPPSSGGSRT

SMILES	Ki [nM]
CC(=O)N1CC[C@H](n2cc(-c3cnc4ccn5c(C)c(-c6c(Cl)cccc6Cl)nc5c4c3)cn2)C1 [Example 52, (S)-1-(3-(4-(2-(2,6-Dichlorophenyl)-3-methylimidazo[2,1-f][1,6]naphthyridin-9-yl)-1H-pyrazol-1-yl)pyrrolidin-1-yl)ethan-1-one]	< 10
OCCn1cc(-c2cnc3ccn4c(CO)c(-c5c(Cl)cccc5Cl)nc4c3c2)cn1 [Example 83, 2-(4-(2-(2,6-Dichlorophenyl)-3-(hydroxymethyl)imidazo[2,1-f][1,6]naphthyridin-9-yl)-1H-pyrazol-1-yl)ethan-1-ol]	< 10
CC(=O)N1CC(c2ccc(-c3cnc4ccn5c(C)c(-c6c(Cl)cccc6Cl)nc5c4c3)cc2)C1 [Example 63]	< 10
CN(C)CCn1cc(-c2cnc3ccn4c(CO)c(-c5c(Cl)cccc5Cl)nc4c3c2)cn1 [Example 72, (2-(2,6-Dichlorophenyl)-9-(1-(2-(dimethylamino)ethyl)-1H-pyrazol-4-yl)imidazo[2,1-f][1,6]naphthyridin-3-yl)methanol]	< 10
Cc1ccoc1-c1nc2c3nc(-c4cnn(C)c4)cnc3ccc2n1C [Example 20, 3-Methyl-8-(1-methyl-1H-pyrazol-4-yl)-2-(3-methylfuran-2-yl)-3H-imidazo[4,5-f]quinoxaline]	100 to 400
CC(=O)N1CCN(c2ccc(-c3cnc4ccc5c(nc(-c6c(F)cccc6Cl)n5C)c4n3)cn2)CC1 [Example 22, 1-(4-(5-(2-(2-Chloro-6-fluorophenyl)-3-methyl-3H-imidazo[4,5-f]quinoxalin-8-yl)pyridin-2-yl)piperazin-1-yl)ethan-1-one]	< 10
COc1ccc(-c2nc3c4nc(-c5cnn(C)c5)cnc4ccc3n2C)c(Cl)c1 [Example 19, 2-(2-Chloro-4-methoxyphenyl)-3-methyl-8-(1-methyl-1H-pyrazol-4-yl)-3H-imidazo[4,5-f]quinoxaline]	100 to 400
OCc1c(-c2c(Cl)cccc2Cl)nc2c3cc(-c4cnn(CCN5CCOCC5)c4)cnc3ccn12 [Example 82, (2-(2,6-Dichlorophenyl)-9-(1-(2-morpholinoethyl)-1H-pyrazol-4-yl)imidazo[2,1-f][1,6]naphthyridin-3-yl)methanol]	< 10
CS(=O)(=O)CCn1cc(-c2cnc3ccn4c(CO)c(-c5c(Cl)cccc5Cl)nc4c3c2)cn1 [Example 80, (2-(2,6-Dichlorophenyl)-9-(1-(2-(methylsulfonyl)ethyl)-1H-pyrazol-4-yl)imidazo[2,1-f][1,6]naphthyridin-3-yl)methanol]	< 10
Cc1c(-c2c(Cl)cccc2Cl)nc2c3cc(-c4cnn([C@H]5CC[C@H](O)CC5)c4)cnc3ccn12 [Example 48, (1r,4r)-4-(4-(2-(2,6-Dichlorophenyl)-3-methylimidazo[2,1-f][1,6]naphthyridin-9-yl)-1H-pyrazol-1-yl)cyclohexan-1-ol]	< 10
Cc1c(-c2c(Cl)cccc2Cl)nc2c3cc(-c4cnn(C5CN(C(=O)Cn6ccnc6)C5)c4)cnc3ccn12 [Example 38, 1-(3-(4-(2-(2,6-Dichlorophenyl)-3-methylimidazo[2,1-f][1,6]naphthyridin-9-yl)-1H-pyrazol-1-yl)azetidin-1-yl)-2-(1H-imidazol-1-yl)ethan-1-one]	< 10
CC(C)c1c(-c2ccccc2Cl)nc2c3cc(-c4cnn([C@H]5CCN(C(=O)CO)C5)c4)cnc3ccn12 [Example 65, (S)-1-(3-(4-(2-(2-Chlorophenyl)-3-isopropylimidazo[2,1-f][1,6]naphthyridin-9-yl)-1H-pyrazol-1-yl)pyrrolidin-1-yl)-2-hydroxyethan-1-one]	10 to 100
Cc1c(-c2c(Cl)cccc2Cl)nc2c3c(O[C@H]4CCOC4)c(-c4cnn(C)c4)cnc3ccn12 [Example 32, (S)-2-(2,6-Dichlorophenyl)-3-methyl-9-(1-methyl-1H-pyrazol-4-yl)-10-((tetrahydrofuran-3-yl)oxy)imidazo[2,1-f][1,6]naphthyridine]	100 to 400
Cc1c(-c2c(Cl)cccc2Cl)nc2c3cc(-c4cnn(C56CCN(C(=O)CO)CC5C6)c4)cnc3ccn12 (stereo not drawn) [Example 59, 1-(6-(4-(2-(2,6-Dichlorophenyl)-3-methylimidazo[2,1-f][1,6]naphthyridin-9-yl)-1H-pyrazol-1-yl)-3-azabicyclo[4.1.0]heptan-3-yl)-2-hydroxyethan-1-one]	< 10
OCc1c(-c2c(Cl)cccc2Cl)nc2c3cc(-c4cnn(CC(F)(F)F)c4)cnc3ccn12 [Example 81, (2-(2,6-Dichlorophenyl)-9-(1-(2,2,2-trifluoroethyl)-1H-pyrazol-4-yl)imidazo[2,1-f][1,6]naphthyridin-3-yl)methanol]	< 10
Cc1c(-c2c(Cl)cccc2Cl)nc2c3cc(-c4ccc(C5CN(C(=O)CO)C5)nc4)cnc3ccn12 [Example 61, 1-(3-(5-(2-(2,6-Dichlorophenyl)-3-methylimidazo[2,1-f][1,6]naphthyridin-9-yl)pyridin-2-yl)azetidin-1-yl)-2-hydroxyethan-1-one]	10 to 100

Next, values leading:

Ki [nM]	SMILES
10 to 100	C/C=C/c1c(-c2ccccc2Cl)nc2c3cc(-c4cnn(C)c4)cnc3ccn12 [Example 3, (E)-2-(2-Chlorophenyl)-9-(1-methyl-1H-pyrazol-4-yl)-3-(prop-1-en-1-yl)imidazo[2,1-f][1,6]naphthyridine]
100 to 400	C=CC(=O)Nc1ccccc1-c1nc2c3cc(-c4cnn(C)c4)cnc3ccn2c1C [Example 36, N-(2-(3-Methyl-9-(1-methyl-1H-pyrazol-4-yl)imidazo[2,1-f][1,6]naphthyridin-2-yl)phenyl)acrylamide]
< 10	O=C(CO)N1CC[C@H](n2cc(-c3cnc4ccn5c(Br)c(-c6c(F)cccc6Cl)nc5c4c3)cn2)C1 [Example 66, (S)-1-(3-(4-(3-Bromo-2-(2-chloro-6-fluorophenyl)imidazo[2,1-f][1,6]naphthyridin-9-yl)-1H-pyrazol-1-yl)pyrrolidin-1-yl)-2-hydroxyethan-1-one]
10 to 100	Cc1cccc(F)c1-c1nc2c3nc(-c4cnn(C)c4)cnc3ccc2n1C [Example 18, 2-(2-Fluoro-6-methylphenyl)-3-methyl-8-(1-methyl-1H-pyrazol-4-yl)-3H-imidazo[4,5-f]quinoxaline]
100 to 400	Cn1cc(-c2cnc3ccn4c(-c5cnn(C)c5)c(-c5ccccc5Cl)nc4c3c2)cn1 [Example 5, 2-(2-Chlorophenyl)-3,9-bis(1-methyl-1H-pyrazol-4-yl)imidazo[2,1-f][1,6]naphthyridine]
100 to 400	Cc1c(C2CC2)nc2c3cc(-c4cnn(C)c4)cnc3ccn12 [Example 67, 2-Cyclopropyl-3-methyl-9-(1-methyl-1H-pyrazol-4-yl)imidazo[2,1-f][1,6]naphthyridine]
10 to 100	Cn1cc(-c2cnc3ccn4cc(-c5c(F)cccc5F)nc4c3c2)cn1 [Example 11, 2-(2,6-Difluorophenyl)-9-(1-methyl-1H-pyrazol-4-yl)imidazo[2,1-f][1,6]naphthyridine]
10 to 100	Cn1cc(-c2cnc3ccn4c(Cl)c(-c5ccccc5Cl)nc4c3c2)cn1 [Example 10, 3-Chloro-2-(2-chlorophenyl)-9-(1-methyl-1H-pyrazol-4-yl)imidazo[2,1-f][1,6]naphthyridine]
< 10	C=CC(=O)Nc1ccc(Cl)c(-c2nc3c4cc(-c5cnn(C)c5)cnc4ccn3c2C)c1Cl [Example 34, N-(2,4-Dichloro-3-(3-methyl-9-(1-methyl-1H-pyrazol-4-yl)imidazo[2,1-f][1,6]naphthyridin-2-yl)phenyl)acrylamide]
< 10	Cc1c(-c2c(Cl)cccc2Cl)nc2c3cc(-c4cnn(C5CCOCC5)c4)cnc3ccn12 [Example 47, 2-(2,6-Dichlorophenyl)-3-methyl-9-(1-(tetrahydro-2H-pyran-4-yl)-1H-pyrazol-4-yl)imidazo[2,1-f][1,6]naphthyridine]
< 10	Cn1cc(-c2cnc3ccn4c(C5CC5)c(-c5ccccc5Cl)nc4c3c2)cn1 [Example 8, 2-(2-Chlorophenyl)-3-cyclopropyl-9-(1-methyl-1H-pyrazol-4-yl)imidazo[2,1-f][1,6]naphthyridine]
100 to 400	Cn1cc(-c2cnc3ccn4c(C#N)c(-c5ccccc5Cl)nc4c3c2)cn1 [Example 7, 2-(2-Chlorophenyl)-9-(1-methyl-1H-pyrazol-4-yl)imidazo[2,1-f][1,6]naphthyridine-3-carbonitrile]
< 10	CN(C)S(=O)(=O)N1CCC(n2cc(-c3cnc4ccn5cc(-c6c(Cl)cccc6Cl)nc5c4c3)cn2)C1 (stereo not drawn) [Example 51, 3-(4-(2-(2,6-Dichlorophenyl)imidazo[2,1-f][1,6]naphthyridin-9-yl)-1H-pyrazol-1-yl)-N,N-dimethylpyrrolidine-1-sulfonamide]
100 to 400	Cn1cc(-c2cnc3ccn4c(C5=CCCC5)c(-c5ccccc5Cl)nc4c3c2)cn1 [Example 2, 2-(2-Chlorophenyl)-3-(cyclopent-1-en-1-yl)-9-(1-methyl-1H-pyrazol-4-yl)imidazo[2,1-f][1,6]naphthyridine]
